One data set relates to Influenza A virus. Description: Antiviral activity against influenza A virus (H1N1). Type of data set: functional, organism-based.
Data set [1] concerns Human immunodeficiency virus 1. In words: Antiviral activity against HIV1 3B infected in human CEM cells assessed as reduction in virus-induced cytopathicity after 4 to 5 days by microscopy based syncytium cell formation assay. Type of data set: functional, organism-based, CCRF-CEM. To be noted: Human immunodeficiency virus 1, 3B, CCRF-CEM; read-out: EC50.
A further data set has as its system Hepatitis C virus. In words: Antiviral activity against HCV genotype 1b I389luc-ubi-neo/NS3-3'/5.1 replicons infected in human Huh5-2 HCV subgenomic replicon-containing cells assessed as reduction in virus replication after 3 days by luciferase reporter gene assay. Type of data set: functional, Hepacivirus hominis. The following applies: Hepatitis C virus, genotype 1b, Huh-5-2, 72 h; for EC50: read-out: EC50.

The subject of another data set is Feline coronavirus. In words: Antiviral activity against feline coronavirus. It is filed as functional, organism-based.
A short description of data set [2]: Cytotoxicity against human CEM cells assessed as inhibition of cell proliferation. Type of data set: cell-based. To be noted: CEM cells (CCRF-CEM).
Data set [3] concerns Human immunodeficiency virus 2. Description: Antiviral activity against HIV2 ROD infected in human CEM cells assessed as reduction in virus-induced cytopathicity after 4 to 5 days by microscopy based syncytium cell formation assay. The following applies: Human immunodeficiency virus 2, ISOLATE ROD, CCRF-CEM; read-out: EC50. It is filed as functional, organism-based, ISOLATE ROD, CCRF-CEM.

The next data set deals with Human respirovirus 3. In words: Antiviral activity against human parainfluenza virus 3. It is filed as functional, organism-based.
Another data set has as its system Felid alphaherpesvirus 1. Description: Antiviral activity against feline herpesvirus. Type of data set: functional, organism-based.
In data set [4] the test system is Respiratory syncytial virus. Description: Antiviral activity against RSV. Type of data set: functional, organism-based.
The subject of another data set is Coxsackievirus B4. In words: Antiviral activity against human coxsackievirus B4. Type of data set: functional, organism-based.
The test system of a further data set is Vaccinia virus. In words: Antiviral activity against vaccinia virus. Type of data set: functional, organism-based. The following applies: Orthopoxvirus vaccinia.
Data set [5] can be described thus: Cytotoxicity against human Huh5-2 cells after 72 hrs by MTS assay. Type of data set: cell-based, Huh-5-2.
The test system of a further data set is Influenza A virus H3N2. Description: Antiviral activity against influenza A virus H3N2. It is filed as functional, organism-based.
Data set [6] relates to Vesicular stomatitis virus. In words: Antiviral activity against vesicular stomatitis virus. It is filed as functional, organism-based.
The next data set deals with Sindbis virus. In words: Antiviral activity against sindbis virus. Type of data set: functional, organism-based.
A further data set has as its system Chikungunya virus. In words: Antiviral activity against chikungunya virus. It is filed as functional.
The next data set deals with Punta Toro virus. In words: Antiviral activity against punta toro virus. Type of data set: functional, organism-based.
The next data set has as its system Reovirus sp. Description: Antiviral activity against reovirus. Type of data set: functional, organism-based.

Each structure is given as a SMILES string. The source made the active and inactive calls. The rule behind the calls is not given here.

As for `CCCCOC(=O)c1cc(O)c(O)c(O)c1` [BUTYL GALLATE], the result (in the data set on Influenza A virus; with Feline coronavirus; with Human respirovirus 3; in the data set with Felid alphaherpesvirus 1; in data set [4]; in the data set on Coxsackievirus B4) was inactive. Also, the result (in the data set with Vaccinia virus; with Influenza A virus H3N2; in data set [6]; in the data set with Sindbis virus; in the data set with Chikungunya virus; with Punta Toro virus) was inactive. Also, the result with Reovirus sp. was inactive. In addition, the EC50 in [1] is over 10 µM; in the data set on Hepatitis C virus, 13 µM; in [3], over 10 µM. In addition, the EC90 in the data set on Hepatitis C virus is over 29 µM. Besides, in data set [2], the CC50 is 55 µM. Further, the CC50 at 72 h in data set [5] is 29 µM.
Take `O=C(OCCCCCCOC(=O)c1cc(O)c(O)c(O)c1)c1cc(O)c(O)c(O)c1`: the result (in the data set with Influenza A virus; in the data set with Feline coronavirus; in the data set on Human respirovirus 3; in the data set with Felid alphaherpesvirus 1; in [4]; with Coxsackievirus B4) was inactive. Also, the result (in the data set with Vaccinia virus; in the data set on Influenza A virus H3N2; in data set [6]; in the data set with Sindbis virus; in the data set with Chikungunya virus; in the data set with Punta Toro virus) was inactive. In addition, the outcome in the data set on Reovirus sp. was inactive. Also, the EC50 in [1] was at least 10 µM; in the data set with Hepatitis C virus, 16 µM; in [3], at least 10 µM. In data set [2], the CC50 stood at 22 µM. The same compound registered a CC50 at 72 h in data set [5] of over 50 µM.
With `O=C(NCCCCCCCCCCCCNC(=O)c1ccccc1O)c1ccccc1O`, the result (in the data set on Influenza A virus; with Feline coronavirus; in the data set on Human respirovirus 3; in the data set on Felid alphaherpesvirus 1; in [4]; with Coxsackievirus B4) was inactive. The result (in the data set with Vaccinia virus; in the data set with Influenza A virus H3N2; in [6]; in the data set with Sindbis virus; in the data set on Chikungunya virus; in the data set with Punta Toro virus) was inactive. Moreover, in the data set on Reovirus sp., the result was inactive. Further, the concentration for a half-maximal effect (EC50) in [1] is over 250 µM; in the data set with Hepatitis C virus, 4.7 µM; in data set [3], over 250 µM. Moreover, the EC90 in the data set with Hepatitis C virus was over 6.7 µM. For the same compound, the CC50 in data set [2] amounted to 248 µM. The compound further came in with a CC50 at 72 h in [5] of over 6.7 µM.
Take `O=C(NCCN(CCNC(=O)c1cc(O)c(O)c(O)c1)CCNC(=O)c1cc(O)c(O)c(O)c1)c1cc(O)c(O)c(O)c1`: the result (in the data set on Influenza A virus; with Feline coronavirus; in the data set with Human respirovirus 3; in the data set on Felid alphaherpesvirus 1; in data set [4]; in the data set on Coxsackievirus B4) was inactive. In addition, the result (in the data set on Vaccinia virus; with Influenza A virus H3N2; in data set [6]; in the data set on Sindbis virus; in the data set on Chikungunya virus; with Punta Toro virus) was inactive. Moreover, the outcome with Reovirus sp. was inactive. Also, the EC50 in [1] is 10 µM; in the data set with Hepatitis C virus it was over 2.9 µM. Moreover, the EC90 in the data set with Hepatitis C virus was over 2.9 µM. Further, the CC50 in [2] turned out to be 54 µM. This compound also yielded a CC50 at 72 h in data set [5] of over 2.9 µM.

These data come from ChEMBL document CHEMBL3407452, “Linear and branched alkyl-esters and amides of gallic acid and other (mono-, di- and tri-) hydroxy benzoyl derivatives as promising anti-HCV inhibitors” (Eur J Med Chem, 2015).
